Results as given in patent US6716829B2, “Aldosterone antagonist and cyclooxygenase-2 inhibitor combination therapy to prevent or treat inflammation-related cardiovascular disorders” (Pharmacia Corporation, priority 2000, dated 2004).
Where “and” joins values, the source holds several entries; their conditions need not be identical. Identical values can stand only once. Entries after “also recorded” stand apart in the source; their conditions may differ.

Legend:
[1] = system: aldosterone-infused, saline-drinking, uni-nephrectomized rats; test: Assay B: heart histology (hematoxylin&eosin), vascular inflammatory lesions and myocardial injury; type: in vivo, Male Sprague Dawley rats; settings: eplerenone 100 mpk p.o., 0.6% KCl group, 4 weeks
Protocol: Assay B: In Vivo Aldosterone Infusion Model Male Sprague Dawley rats (n=39; BW=250 g) […] Uni-nephrectomy performed during implantation of mini-pumps 2. Aldosterone ([…], sc via alzet minipump) 2. […] 1. […] Sacrifice after 4 weeks. Hearts were harvested and divided by half through a transverse section at the mid-ventricles: The upper half was stored into formalin. The bottom part was snap-frozen in liquid nitrogen for biochemical analysis. Hearts were stained with hematoxylin&eosin and the collagen specific dye picro-sirius red and were analyzed for determination of interstitial collagen volume fraction and morphologic abnormalities (i.e. necrosis, vascular injury).

[2] = system: vascular cell adhesion molecule-1 (VCAM-1); test: Assay C: VCAM-1 mRNA in heart by TaqMan RT-PCR; type: in vivo, Male Sprague-Dawley rats; settings: for VCAM mRNA (AU): relative to cyclophilin expression, mean ± SEM, eplerenone dose 100 mg/kg/day; for VCAM (AU): mRNA; for VCAM-1 mRNA expression: myocardium, aldosterone + salt, 7, 14, 30 days, eplerenone 100 mg/kg/day
Protocol: The procedure of Assay B was expanded upon in a further study. […] Myocardial tissue from animals in each treatment group was examined after 7, 14, or 30 days of treatment.
Potassium chloride supplementation was added to the saline solution in order to prevent the potential hypokalemia associated with aldosterone excess.
At the time of the surgery, an Alzet 2002 osmotic minipump (Alza Corp., Palo Alto, Calif.) containing either vehicle (9% ethanol/87% propylene glycol/4% dH2O) or 1.0 mg/mL d-aldosterone (Sigma Chemical, St. Louis, Mo.) was inserted subcutaneously at the nape of the neck. Aldosterone was administered at a dose of 0.75 µg/hour. […] Animals were sacrificed from each group (n=8-13) after 7, 14, or 30 days of treatment.
The fluorogenic 5′-nuclease assay (TaqMan PCR) using Applied Biosystems' 7700 Sequence Detection System (Applied Biosystems, Foster City, Calif.) allowed for real time detection/quantitation of a specific gene by monitoring the increase in fluorescence of a gene-specific, dye-labeled oligonucleotide probe. Probes for target and reference genes were labeled at the 5′-end with a 6-carboxyfluorescein (6FAM) reporter dye and at the 3′-end with a 6-carboxy-N,N,N′,N′-tetramethylrhodamine (TAMRA) quencher dye. When the probe was annealed to the target gene, fluorescence of 6FAM was prevented by the close proximity of TAMRA. The exonuclease activity of Taq polymerase released the dyes from the oligonucleotide probe by displacing the probe from the target sequence resulting in fluorescence excitation in direct proportion to the amount of target message present. Data analysis was performed using the Sequence Detection System software from Applied Biosystems.
All primers and probes were designed using Primer Express software supplied with the 7700 Sequence Detection System and synthesized by Applied Biosystems. Standard curves using 5-fold dilutions of total RNA (from 200 ng to 320 pg) were performed to determine the efficiency of each primer/probe set in the TaqMan reaction prior to the analysis of the experimental samples. Primer/probe sets were designed from known sequences of rat genes to be analyzed. All target gene values were normalized to a reference gene, constitutively expressed cyclophilin. Primer/probe set sequences can be found in Table 8.
RNA was extracted from frozen (−80° C.) rat heart tissue using the Totally RNA Isolation Kit (Ambion, Inc., Austin, Tex.). Tissue was crushed using a stainless steel mortar and pestle, which had been chilled to −80° C. and transferred to a dounce homogenizer (Kontes, Vineland, N.J.) containing 3-10 mL cold denaturation buffer. Tissue was homogenized and transferred to a sterile, 15 mL polypropylene centrifuge tube. An equal volume of phenol:chloroform:isoamyl alcohol (25:24:1) was added, samples were shaken vigorously for 1 min, and incubated on ice for at least 15 min. Samples were centrifuged for 30 min at 10,000g. The aqueous phase was removed, 1/10 volume of a sodium acetate solution (3.0 M NaOAc pH 4.5) was added, samples were shaken or inverted for 10 seconds, and acid-phenol (premixed with isoamyl alcohol):chloroform (5:1, Ambion, Inc.) was added at an volume equivalent to the starting sample volume. Samples were shaken vigorously for 1 min, followed by a 15-min incubation on ice, and centrifuged for 30 min at 10,000 g. The aqueous phase removed and placed in a clean polypropylene tube. An equal volume of isopropanol (Sigma, St. Louis, Mo.) was added and the samples were mixed and incubated overnight at −20° C. The samples were centrifuged for 30 min at 10,000 g, the supernatant was removed and the RNA pellet was resuspended in DNAse/RNAse-free water. Samples were frozen at −80° C. for at least 2 hours, thawed on wet ice, and diluted for quantitation.

[3] = group mean, data used for Table 17 (7-day protocol)
[4] = group mean, data used for Table 18 (14-day protocol)
[5] = group mean, data used for Table 19 (30-day protocol)

Row | SMILES | Vascular inflammatory changes / myocardial injury [1] | VCAM mRNA (AU) ([2]; after 7 days of treatment) | VCAM mRNA (AU) ([2]; after 14 days of treatment) | VCAM mRNA (AU) ([2]; after 30 days of treatment) | VCAM (AU) [2, 3] | VCAM (AU) [2, 4] | VCAM (AU) [2, 5] | VCAM (AU) ([2]; individual rats, data used for Table 17 (7-day protocol), incl. rat marked * excluded from statistics, listed as Aldosterone + salt) | VCAM (AU) ([2]; individual rats, data used for Table 18 (14-day protocol), incl. rat marked * excluded from statistics, listed as Aldosterone + salt) | VCAM (AU) ([2]; individual rats, data used for Table 19 (30-day protocol), incl. rat marked * excluded from statistics, listed as Aldosterone + salt) | VCAM-1 mRNA expression [2] | VCAM (AU) ([2]; individual rats, data used for Table 17 (7-day protocol), incl. rat marked * excluded from statistics, listed as Eplerenone + aldosterone + salt) | VCAM (AU) ([2]; individual rats, data used for Table 18 (14-day protocol), incl. rat marked * excluded from statistics, listed as Eplerenone + aldosterone + salt) | VCAM (AU) ([2]; individual rats, data used for Table 19 (30-day protocol), incl. rat marked * excluded from statistics, listed as Eplerenone + aldosterone + salt)
1 | C[C@]12CCC(=O)C=C1CC[C@@H]1[C@@H]2[C@@H](O)C[C@]2(C=O)[C@@H](C(=O)CO)CC[C@@H]12 [Aldosterone] | severe vascular inflammatory lesions | 1.55 ± 0.39 AU | 1.16 AU | 2.14 ± 0.49 AU | 1.55 AU | 1.16 AU | 2.14 AU | 3.49 AU and 0.85 AU and 2.06 AU and 2.51 AU and 1.65 AU and 0.61 AU and 0.94 AU and 0.27 AU and 5.23 AU | 0.89 AU and 0.69 AU and 0.84 AU and 0.72 AU and 2.23 AU and 1.03 AU and 1.65 AU and 1.24 AU and 1.75 AU | 3.48 AU and 1.87 AU and 2.99 AU and 1.64 AU and 0.72 AU | increased two-fold | – | – | –
2 | COC(=O)[C@@H]1CC2=CC(=O)CC[C@]2(C)[C@@]23O[C@@H]2C[C@@]2(C)[C@@H](CC[C@@]24CCC(=O)O4)[C@H]13 [Eplerenone] | prevention; also recorded: completely prevented | 0.56 ± 0.08 AU | 0.83 AU | 1.04 ± 0.14 AU | 0.56 AU | 0.83 AU | 1.04 AU | – | – | – | inhibition; also recorded: significantly reduced | 0.67 AU and 0.58 AU and 0.22 AU and 0.57 AU and 0.53 AU and 1.00 AU | 0.54 AU and 0.66 AU and 0.61 AU (2×) and 0.67 AU and 0.86 AU and 1.21 AU and 1.00 AU and 0.68 AU (2×) and 1.60 AU | 1.42 AU (2×) and 1.29 AU and 1.49 AU and 1.27 AU and 0.79 AU and 0.52 AU and 0.57 AU and 0.61 AU and 4.01 AU
